Several values for one entry are separate records, joined by “and”; a condition that tells them apart may be missing. Equal entries are not always repeated. Where two headings read alike, the source gives them in different places.
Legend:
HSP90 = HSP90 expression in neuro2A cells, western blot; type: cell-based, mouse; details: 48 hours, GGTI-298
Method: Differentiation was induced and cells incubated with geranylgeranyl transferase I inhibitor, GGTI-298. Cells were harvested and lysates were prepared and analyzed by western blot for HSP70 and HSP90. Western signals in the absence of the compounds were normalized as 1.00.

Sprague Dawley rats = experiment: Kainic acid stereotactic hippocampus injection model, fraction of cells damaged; type: in vivo, rat; details: for Difference of mean fraction damaged to pooled PBS / Mean fraction of cells damaged in the hippocampus: 12 mg/kg oral; for Mean fraction of cells damaged in the hippocampus: pooled PBS 0.187
Method: CNS-102 was administered orally to Sprague Dawley rats at 12 mg/kg. After dosing, KA was stereotactically injected into the hippocampus at 24, 48, 72, 96 and 168 hours to induce neuron damage. After 24 h, hippocampus tissue was collected, stained, and imaged. The scans were analyzed by Image J to calculate the fraction of cells having KA-induced damage. Average fraction damaged in the hippocampus from ten animals for each treatment (PBS vs. 12 mg/kg CNS-102) by time (24, 48, 72, 96 and 168 hours) combination was estimated with PROC MIXED in SAS. Comparisons of the CNS-102 treatment groups to the pooled PBS treatment at the different times can be made, giving the results tabulated below.
The fraction of cells damaged in the kainic acid model was determined on 130 rats, each receiving one dose of CNS-102 at either 0, 1, 3, 6, 12 or 24 mg/kg. PBS was used for dosing at 0 mg/kg. The linear model of the log10 percent damage versus concentration is graphically shown FIG. 5.
After dosing, KA was stereotactically injected into the hippocampus at 72 hours to induce neuron damage. After 24 h, hippocampus tissue was collected, stained, and imaged. The scans were analyzed by Image J to calculate the fraction of cells having KA-induced damage.
The indicated compounds or vehicle control were orally dosed to Sprague-Dawley rats, and Kainic acid was injected. After dosing, KA was stereotactically injected into the hippocampus at 72 hours to induce neuron damage. After 24 h, hippocampus tissue was collected, stained, and imaged. The scans were analyzed by Image J to calculate the fraction of cells having KA-induced damage. Neurons damaged by Kainic acid (mean of hippocampus CA3 neurons damaged) were quantified.

SOD1 mice [1] = experiment: Survival in the SOD1 mouse model of ALS; type: in vivo
SOD1 mice [2] = experiment: CatWalk gait analysis in SOD1 mice; type: in vivo, mouse; parameters: Hind stride length, Mean/average: unit not given beside the values
Text: Prior to onset, there was little to no difference between the transgenic and wildtype groups. Transgenic animals tended to rely more on front paws for movement as weakness and paralysis in the hind paws progressed. This began to show around timepoint P100, coinciding with the expected onset of disease. This impairment was seen through changes in front and hind paw step cycle, print area, mean intensity, and base of support.

Rap1 = experiment: Prenylation of Rap1 in Neuro2A cells, western blotting; type: cell-based, mouse; details: 100 nM
Method in brief: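 Mouse Neuro2A cells in DMEM/10% FBS were treated with compound for 24 h, then GGTI-298 was added for a further 24 h. Un-prenylated and total Rap1 were quantified by western blot, normalized to GAPDH; the un-prenylated/total ratio was expressed as percent of GGTI-only control, mean of two biological repeats.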

RhoA = experiment: Active RhoA to total RhoA in Neuro2A cells (G-LISA, ELISA); type: cell-based, mouse; details: 48 hrs, active RhoA to total RhoA as percentage of DMSO treatments
Method: Mouse neuroblastoma Neuro2A cells were cultured in DMEM supplemented with 10% FBS for 24 hrs. […] Cell lysates were quantified and subjected either to active RhoA assay using G-LISA RhoA activation Assay Biochem Kit (Cytoskeleton Inc), or to total RhoA assay using Total RhoA ELISA Kit (Cytoskeleton Inc). The results were calculated as ratio of active RhoA to total RhoA and averaged from 3 biological repeats of one experiment with background subtraction. The data was presented as percentage of DMSO treatments.

[3] = mouse, in vivo, po, 12 mg/kg
Text: Blood and serum samples from days P70 and P100 were collected on three animals from each of the six treatment groups. Hematology measures were white blood cell count, red blood cell count, hemoglobin, hematocrit, mean corpuscular volume, mean corpuscular hemoglobin, mean corpuscular hemoglobin concentration, and platelets. Chemistry values were alanine aminotransferase, aspartate aminotransferase, albumin, total protein, gamma globulin, blood urea nitrogen, cholesterol, and glucose. No analyses were conducted on any samples collected after P100.

HSP70 = details: rat eyes, single dose 12 mg/kg

SMILES: CC(=O)CC/C=C(\C)CC/C=C(\C)CC/C=C(\C)CCC=C(C)C [CNS-102]
- HSP90 western signal (absence of compounds = 1.00) (HSP90; 100 nM): 3.29
- HSP90 western signal (absence of compounds = 1.00) (HSP90; 1 μM): 1.74
- HSP90 western signal (absence of compounds = 1.00) (HSP90; 10 μM): 1.21
- Difference of mean fraction damaged to pooled PBS (Sprague Dawley rats; KA at 24 hours): 0.005
- Difference of mean fraction damaged to pooled PBS (Sprague Dawley rats; KA at 48 hours): −0.064
- Difference of mean fraction damaged to pooled PBS (Sprague Dawley rats; KA at 72 hours): −0.092
- Difference of mean fraction damaged to pooled PBS (Sprague Dawley rats; KA at 96 hours): −0.056
- Difference of mean fraction damaged to pooled PBS (Sprague Dawley rats; KA at 168 hours): −0.026
- Mean fraction of cells damaged in the hippocampus (Sprague Dawley rats; KA injected at 24 hours): 0.193
- Mean fraction of cells damaged in the hippocampus (Sprague Dawley rats; KA injected at 48 hours): 0.123
- Mean fraction of cells damaged in the hippocampus (Sprague Dawley rats; KA injected at 72 hours): 0.096
- Mean fraction of cells damaged in the hippocampus (Sprague Dawley rats; KA injected at 96 hours): 0.131
- Mean fraction of cells damaged in the hippocampus (Sprague Dawley rats; KA injected at 168 hours): 0.162
- Mean of Hippocampus CA3 Neurons Damaged (Sprague Dawley rats; 24 mg/Kg rat oral, KA at 72 hours): 19.8182 Arbitrary units
- minimal effective dose (Sprague Dawley rats; one dose of 0, 1, 3, 6, 12 or 24 mg/kg, kainic acid model): 12 mg/kg
- timepoint of maximal protection effect (Sprague Dawley rats; single dose of 12 mg/kg): 72 h
- Median Survival (SOD1 mice [1]; CNS-102 12 mg/kg or riluzole 8 mg/kg daily oral from P38, vehicle 125.0): 133.0 days
- % Increase in median time to death compared to vehicle group (SOD1 mice [1]; parametric regression (gamma distribution)): 9% and 9.5%
- Run Duration, CNS-102 - vehicle difference of averages (SOD1 mice [2]; P120): −1.68
- Stride Length, CNS-102 - vehicle difference of averages (SOD1 mice [2]; P120): 1.46
- Swing Speed, CNS-102 - vehicle difference of averages (SOD1 mice [2]; P120): 14.58
- Run Duration, Mean/average (SOD1 mice [2]; P-42, SOD1/Vehicle 1.484746201): 1.685
- Hind stride length, Mean/average (SOD1 mice [2]; P-42, SOD1/Vehicle 6.359471205): 6.082
- Swing speed, Mean/average (SOD1 mice [2]; P-42, SOD1/Vehicle 45.8515272): 41.18
- Run Duration, Mean/average (SOD1 mice [2]; P-124 (+/−) 3, SOD1/Vehicle 3.461605345): 1.976
- Hind stride length, Mean/average (SOD1 mice [2]; P-124 (+/−) 3, SOD1/Vehicle 3.607909383): 5.476
- Swing speed, Mean/average (SOD1 mice [2]; P-124 (+/−) 3, SOD1/Vehicle 23.93413455): 35.63
- prenylation of Rap1 compared to control (Rap1; student's t-test, P=0.08): slightly increase the prenylation of Rap1
- unprenylated/total RAP1 (%) (Rap1; with GGTI-298, percentage of control (GGTI only)): 59%
- % Relative RhoGTPase Activity (RhoA; CNS-102 10 nM): 103.6%
- % Relative RhoGTPase Activity (RhoA; CNS-102 100 nM): 120.1%
- ABSOLUTE BASOPHIL [3]: 0 per mm^3
- ABSOLUTE EOSINOPHIL [3]: 61.6 per mm^3
- ABSOLUTE LYMPHOCYTE [3]: 3922.4 per mm^3
- ABSOLUTE MONOCYTE [3]: 49.8 per mm^3
- ABSOLUTE NEUTROPHIL SEG [3]: 659.6 per mm^3
- ALKALINE PHOSPHATASE [3]: 70.7 U/L
- BASOPHIL [3]: 0.0%
- BICARBONATE [3]: 5.0 mg/dL
- BUN [3]: 28.8 mg/dL
- CALCIUM [3]: 7.7 mg/dL
- CHOLESTEROL [3]: 72.4 mg/dL
- CREATININE [3]: <1 mg/dL
- DIRECT BILIRUBIN [3]: 0.0 mg/dL
- EOSINOPHIL [3]: 1.5%
- GLUCOSE [3]: 207.6 mg/dL
- HCT [3]: 46.0%
- HGB [3]: 13.6 gram/dL
- INDIRECT BILIRUBIN [3]: 0.0 mg/dL
- LYMPHOCYTE [3]: 84.0%
- MCH [3]: 15.5 pg
- MCHC [3]: 29.5%
- MCV [3]: 52.6 U^3
- MONOCYTE [3]: 0.8%
- NEUTROPHIL SEG [3]: 13.8%
- NRBC [3]: 0.0 per 100 WBC
- PHOSPHORUS [3]: 5.7 mg/dL
- PLATELET COUNT [3]: 1128.6 Thousands
- RBC [3]: 8.8 Millions
- SGOT (AST) [3]: 46.3 U/L
- SGPT (ALT) [3]: 37.8 U/L
- TOTAL BILIRUBIN [3]: 0.0 mg/dL
- WBC [3]: 4.7 thousands
- HSP70 Expression (Fold change vs vehicle control), mean ± SD (HSP70; 24 hr): 1.47 ± 0.36
- HSP70 Expression (Fold change vs vehicle control), mean ± SD (HSP70; 48 hr): 1.33 ± 0.10
- HSP70 Expression (Fold change vs vehicle control), mean ± SD (HSP70; 72 hr): 1.40 ± 0.11
